How the values were obtained:
[1] = molecular target: T1, HAUS4 HAUS augmin-like complex subunit 4 (Homo sapiens, UniProt Q9H6D7); assay: competitive isoTOP-ABPP; format: binding; settings: for R value (DMSO/fragment) for probe 1 labeling: Q9H6D7_K271; for R value (DMSO/fragment) for probe 1 labeling / isoTOP-ABPP reactivity ratio at lysine Q9H6D7_K271 / isoTOP-ABPP ratio (R) at liganded lysine Q9H6D7_K271: 50 uM, in vitro; for R value (DMSO/fragment) for probe 1 labeling / isoTOP-ABPP reactivity ratio at lysine Q9H6D7_K271: 231 sol; for isoTOP-ABPP ratio (R) at liganded lysine Q9H6D7_K271: sol, 231
T1 construct: endogenous in cells; host or cells: MDA-MB-231 (soluble fraction of lysate)
T1 sequence (Q9H6D7 1-363): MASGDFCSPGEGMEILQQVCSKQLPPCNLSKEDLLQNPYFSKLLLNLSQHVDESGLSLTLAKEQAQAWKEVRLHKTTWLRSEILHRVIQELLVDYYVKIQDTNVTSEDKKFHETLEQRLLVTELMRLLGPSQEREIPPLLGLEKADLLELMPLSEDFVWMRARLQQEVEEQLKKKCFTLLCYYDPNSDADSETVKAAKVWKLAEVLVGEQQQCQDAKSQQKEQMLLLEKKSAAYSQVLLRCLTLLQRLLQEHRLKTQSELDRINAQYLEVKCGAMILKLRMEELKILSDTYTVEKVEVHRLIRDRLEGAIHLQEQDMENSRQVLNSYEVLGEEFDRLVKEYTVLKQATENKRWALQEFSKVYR
How it was run: (§1)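 Fragments at 50 μM (activated esters) or 100 μM (guanidinylating agents) were incubated with 0.5 ml lysate before probe labeling. After 0.1 mM STP-alkyne for 1 h, samples were clicked to isotopically distinct TEV tags, and R taken as DMSO-over-compound MS1 peak-area ratio.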

RTN3 Reticulon-3 = molecular target: T2, RTN3 Reticulon-3 (Homo sapiens, UniProt O95197); assay: competitive isoTOP-ABPP; format: binding; settings: 50 uM, in vitro; for isoTOP-ABPP reactivity ratio at lysine O95197_K1022: 231 sol; for isoTOP-ABPP ratio (R) at liganded lysine O95197_K1022: sol, 231
T2 construct: isoTOP-ABPP experiments performed in cell lysates (in vitro); endogenous in cells; host or cells: MDA-MB-231 soluble lysate
T2 sequence (O95197 1-1032): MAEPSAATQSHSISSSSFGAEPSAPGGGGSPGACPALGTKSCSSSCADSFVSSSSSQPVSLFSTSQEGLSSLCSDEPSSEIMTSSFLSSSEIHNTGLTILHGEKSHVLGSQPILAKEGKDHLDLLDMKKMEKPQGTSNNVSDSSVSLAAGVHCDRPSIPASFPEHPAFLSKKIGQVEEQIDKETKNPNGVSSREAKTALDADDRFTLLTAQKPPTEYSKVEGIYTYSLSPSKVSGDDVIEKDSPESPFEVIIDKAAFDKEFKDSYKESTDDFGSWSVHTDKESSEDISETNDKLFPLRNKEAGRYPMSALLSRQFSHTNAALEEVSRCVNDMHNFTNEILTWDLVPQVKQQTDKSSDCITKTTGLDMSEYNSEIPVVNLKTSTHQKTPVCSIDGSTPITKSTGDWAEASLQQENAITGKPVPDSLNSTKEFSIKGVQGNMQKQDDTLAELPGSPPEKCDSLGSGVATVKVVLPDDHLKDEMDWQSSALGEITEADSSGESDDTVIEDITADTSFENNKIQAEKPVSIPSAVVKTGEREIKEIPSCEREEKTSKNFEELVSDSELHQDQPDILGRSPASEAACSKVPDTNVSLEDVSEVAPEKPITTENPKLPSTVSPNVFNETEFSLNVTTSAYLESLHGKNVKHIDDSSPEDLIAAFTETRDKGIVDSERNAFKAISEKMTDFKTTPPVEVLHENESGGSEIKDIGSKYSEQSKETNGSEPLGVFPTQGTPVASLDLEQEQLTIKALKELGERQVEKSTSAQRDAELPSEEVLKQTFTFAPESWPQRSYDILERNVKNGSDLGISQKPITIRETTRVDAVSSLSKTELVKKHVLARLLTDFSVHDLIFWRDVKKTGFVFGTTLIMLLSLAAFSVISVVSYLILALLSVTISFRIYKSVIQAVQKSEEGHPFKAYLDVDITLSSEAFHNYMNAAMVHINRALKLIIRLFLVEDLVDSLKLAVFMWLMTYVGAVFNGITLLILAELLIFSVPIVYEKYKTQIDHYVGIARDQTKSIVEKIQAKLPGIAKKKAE
How it was run: as §1

O=C(Oc1c(F)c(F)c(F)c(F)c1F)C(c1ccccc1)c1ccccc1 [fragment 20, Pentafluorophenyl 2,2-diphenylacetate]
R value (DMSO/fragment) for probe 1 labeling [1]: 0.7

Cn1cc(CC(=O)Oc2c(F)c(F)c(F)c(F)c2F)c2ccccc21 [fragment 22, Pentafluorophenyl 2-(1-methyl-1H-indol-3-yl)acetate]
R value (DMSO/fragment) for probe 1 labeling [1]: 0.9

O=C(Oc1c(F)c(F)c(F)c(F)c1F)C1CCN(C(=O)OCc2ccccc2)CC1 [fragment 24, 1-Benzyl 4-(pentafluorophenyl) piperidine-1,4-dicarboxylate]
isoTOP-ABPP reactivity ratio at lysine Q9H6D7_K271 [1]: 0.8

CCn1cc(C(=O)Oc2c(F)c(F)c(F)c(F)c2F)c(=O)c2ccc(C)nc21 [fragment 28, Pentafluorophenyl 1-ethyl-7-methyl-4-oxo-1,4-dihydro-1,8-naphthyridine-3-carboxylate]
isoTOP-ABPP reactivity ratio at lysine O95197_K1022 (RTN3 Reticulon-3): 1.2

O=C(CCc1cn(-c2ccccc2)nc1-c1ccccc1)Oc1ccc([N+](=O)[O-])cc1[N+](=O)[O-] [fragment 29, 2,4-Dinitrophenyl 3-(1,3-diphenyl-1H-pyrazol-4-yl)propanoate]
isoTOP-ABPP reactivity ratio at lysine O95197_K1022 (RTN3 Reticulon-3): 6.2

O=C(Oc1ccc([N+](=O)[O-])cc1[N+](=O)[O-])C(c1ccccc1)c1ccccc1 [fragment 30, 2,4-Dinitrophenyl 2,2-diphenylacetate]
isoTOP-ABPP reactivity ratio at lysine Q9H6D7_K271 [1]: 1.0
isoTOP-ABPP reactivity ratio at lysine O95197_K1022 (RTN3 Reticulon-3): 20.0

Cn1cc(CC(=O)Oc2ccc([N+](=O)[O-])cc2[N+](=O)[O-])c2ccccc21 [fragment 32, 2,4-Dinitrophenyl 2-(1-methyl-1H-indol-3-yl)acetate]
isoTOP-ABPP reactivity ratio at lysine Q9H6D7_K271 [1]: 1.0

COc1cc(CCC(=O)Oc2ccc([N+](=O)[O-])cc2[N+](=O)[O-])cc(OC)c1OC [fragment 33, 2,4-Dinitrophenyl 3-(3,4,5-trimethoxyphenyl)propanoate]
isoTOP-ABPP reactivity ratio at lysine O95197_K1022 (RTN3 Reticulon-3): 1.4

O=C(Oc1ccc([N+](=O)[O-])cc1[N+](=O)[O-])c1ccc(-c2ccccc2)cc1 [fragment 37, 2,4-Dinitrophenyl [1,1′-biphenyl]-4-carboxylate]
isoTOP-ABPP ratio (R) at liganded lysine Q9H6D7_K271 [1]: 0.7

O=C(Oc1ccc([N+](=O)[O-])cc1[N+](=O)[O-])c1ccccc1Nc1cccc(C(F)(F)F)c1 [fragment 40, 2,4-Dinitrophenyl 2-((3-(trifluoromethyl)phenyl)amino)benzoate]
isoTOP-ABPP ratio (R) at liganded lysine Q9H6D7_K271 [1]: 0.7
isoTOP-ABPP ratio (R) at liganded lysine O95197_K1022 (RTN3 Reticulon-3): 1.7

CC(C)(C)OC(=O)NCCCC(=O)Oc1ccc([N+](=O)[O-])cc1[N+](=O)[O-] [fragment 41, 2,4-Dinitrophenyl 4-((tert-butoxycarbonyl)amino)butanoate]
isoTOP-ABPP ratio (R) at liganded lysine O95197_K1022 (RTN3 Reticulon-3): 1.6

O=C(Oc1ccc([N+](=O)[O-])cc1[N+](=O)[O-])C(c1ccccc1)(c1ccccc1)c1ccccc1 [fragment 42, 2,4-Dinitrophenyl 2,2,2-triphenylacetate]
isoTOP-ABPP ratio (R) at liganded lysine O95197_K1022 (RTN3 Reticulon-3): 1.1

N#Cc1ccc(C(=O)Oc2ccc([N+](=O)[O-])cc2[N+](=O)[O-])cc1 [fragment 44, 2,4-Dinitrophenyl 4-cyanobenzoate]
isoTOP-ABPP ratio, lysine Q9H6D7_K271 ([1]; 50 uM_231_sol_in vitro): 0.9

O=C(CCc1ccc2c(c1)OCO2)Oc1ccc([N+](=O)[O-])cc1[N+](=O)[O-] [fragment 45, 2,4-Dinitrophenyl 3-(benzo[d][1,3]dioxol-5-yl)propanoate]
isoTOP-ABPP ratio, lysine Q9H6D7_K271 ([1]; 50 uM_231_sol_in vitro): 1.1

CC(C)(C)OC(=O)N=C(NC(=O)OC(C)(C)C)n1cccn1 [fragment 50, reference compound]
isoTOP-ABPP ratio, lysine Q9H6D7_K271 ([1]; 100 uM_231_sol_in vitro): 4.3
